Experimental data published in US11306095B2 (EAST CHINA UNIVERSITY OF SCIENCE AND TECHNOLOGY, priority 2015, dated 2022).
≈ marks a conversion by molar mass, not a printed value. Where two headings read alike, the source gives them in different places.

How the values were obtained:
[1] = target: T1, Wild type EGFR (Homo sapiens, UniProt P00533); assay: Kinase activity test (FRET), wild type EGFR; type: biochemical
T1 construct: purchased Invitrogen PV3872
Method: (§1) EGFR-TK catalyses transfer of one phosphate group of adenosine triphosphate (ATP) to polypeptide substrate, poly(Glu, Tyr)4:1, which is labeled with two fluorescent groups coumarin and fluorescein.
(§2) 2.5 μL of Test Compounds, 5 μL Kinase/Peptide Substrate Mixture, 2.5 μL ATP Solution were added into a 384-well plate, and the 10 μL of reaction system was shaken for 30 s and incubated at room temperature for 1 h. 5 μL of Development Solution was added and the 15 μL of reaction system was shaken for 30 s, and incubated at room temperature for 1 h. […] The inhibitory rates of the compounds at 7 concentration gradients were determined and the IC50 value for each compound was calculated by Origin 8.0 fitting curve.
(§3) 10 concentration gradients from 5.1×10^−11 mol/L to 1.0×10^−6 mol/L were set for all compounds to be tested.
(§4) Compounds were diluted in DMSO for three times from 5.1×10^−9 M to 1×10^−4 M. 4 μL of the compound was dissolved in 96 μL of water to obtain a 4× compound solution. […] The 10 μL kinase reaction consisted of 2.5 μL compound solution, 5 μL kinase/peptide mix, 2.5 μL ATP solution. […] 5 μL of phosphorylated peptide solution, instead of the kinase/peptide mixture, was used as a 100% phosphorylation control. […] The plates were thoroughly mixed and incubated at room temperature for 1.5 hours. 5 μL of Development Solution was added into each well and then incubated for another 1 hour at room temperature, unphosphorylated peptides were cleaved during this period. Finally, 5 μL Stop Reagent was added to quench the reaction. The plates were measured with EnVision Multilabel Reader (Perkin Elmer). The experimental data were calculated using GraphPad Prism version 4.0. Each experiment was repeated more than 3 times.

[2] = target: T2, EGFR-L858R/T790M (Homo sapiens, UniProt P00533, L858R/T790M); assay: Kinase activity test (FRET), EGFR T790M/L858R; type: biochemical
T2 construct: purchased Invitrogen PV4879
T2 sequence (P00533 25-1210 T790M/L858R): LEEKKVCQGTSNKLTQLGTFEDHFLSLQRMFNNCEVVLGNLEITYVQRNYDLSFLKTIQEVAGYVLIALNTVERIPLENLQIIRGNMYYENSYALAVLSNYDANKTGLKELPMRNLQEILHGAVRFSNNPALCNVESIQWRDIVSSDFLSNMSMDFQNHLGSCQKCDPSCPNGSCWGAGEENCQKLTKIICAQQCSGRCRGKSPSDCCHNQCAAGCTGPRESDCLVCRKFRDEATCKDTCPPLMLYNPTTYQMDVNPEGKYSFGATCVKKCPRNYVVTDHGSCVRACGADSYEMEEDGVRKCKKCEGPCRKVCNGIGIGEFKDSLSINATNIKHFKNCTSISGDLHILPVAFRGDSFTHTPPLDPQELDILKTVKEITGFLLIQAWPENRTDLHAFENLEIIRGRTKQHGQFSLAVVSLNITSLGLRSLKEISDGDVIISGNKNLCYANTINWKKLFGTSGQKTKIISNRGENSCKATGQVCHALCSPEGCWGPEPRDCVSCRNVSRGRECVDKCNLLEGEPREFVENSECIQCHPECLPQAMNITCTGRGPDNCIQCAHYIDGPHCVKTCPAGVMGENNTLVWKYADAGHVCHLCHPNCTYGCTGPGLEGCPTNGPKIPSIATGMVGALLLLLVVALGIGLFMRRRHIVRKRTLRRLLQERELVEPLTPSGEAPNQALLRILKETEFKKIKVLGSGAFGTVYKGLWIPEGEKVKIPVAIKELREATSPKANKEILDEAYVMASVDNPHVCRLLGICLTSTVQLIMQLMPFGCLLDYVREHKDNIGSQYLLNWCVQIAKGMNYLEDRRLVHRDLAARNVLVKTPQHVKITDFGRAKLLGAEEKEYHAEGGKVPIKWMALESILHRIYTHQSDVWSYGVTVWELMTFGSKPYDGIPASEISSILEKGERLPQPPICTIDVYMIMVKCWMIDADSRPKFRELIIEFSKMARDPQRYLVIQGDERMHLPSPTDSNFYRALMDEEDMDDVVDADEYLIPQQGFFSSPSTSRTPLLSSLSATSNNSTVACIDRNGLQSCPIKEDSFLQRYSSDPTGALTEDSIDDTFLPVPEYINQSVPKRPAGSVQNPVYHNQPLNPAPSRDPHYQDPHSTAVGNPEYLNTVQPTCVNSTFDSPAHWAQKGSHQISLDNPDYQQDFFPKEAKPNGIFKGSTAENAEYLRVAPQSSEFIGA
Method: as §1, §2, §3, §4

[3] = test system: H1975 cells (EGFR L858R/T790M); assay: Inhibitory activity on cell proliferation, H1975; type: cell-based; settings: Homo sapiens, NCI-H1975
Method: (§5) Cell proliferation activity was assessed by MTS assay. Cells were exposed to processing conditions for 72 hours and the number of cells used in each experiment for each cell line was adjusted based on absorbance values (absorbance values at 490 nm, 1.3-2.2). Six concentration gradients (0.1 nM-10 μM) were set for the compounds to be tested, wherein at least 6 sets of parallel controls for each concentration were used.
(§6) H1975, A431 cells were cultured in corresponding media, and cells were passaged at least twice after resuscitation and then used for experiments. Cells at Log phase were trypsinized and resuspended in culture medium. H1975 (1000 cells per well), A431 (2000 cells per well) were seeded in 96-well plates in a volume of 100 μL; and 6 sets of parallel controls and 7 columns were set. The plate was placed in a 37° C. 5% CO2 incubator overnight. Compounds were dissolved in DMSO to a concentration of […], and then the concentration was gradually diluted to 10 μM, 1 μM, 0.1 μM, 0.01 μM, 0.001 μM, 0.0001 μM per liter, respectively. 2 μL of the compound solution was added to 998 μL of medium, and the mixture was thoroughly mixed. 100 μL of the mixture was added to a 96-well plate. […] After culturing for 68 hours, 20 μL of MTT (5 mg/mL) was added. After 4 hours, the supernatant was discarded and 150 μL of DMSO was added. After shaking for 10 minutes, the plate was read with Synergy HT (Bio TeK) (OD490). Data were calculated using GraphPad Prism version 4.0 and IC50 values were obtained using a non-linear regression model of dose response curve.

[4] = test system: A431 cells (EGFR wild type); assay: Inhibitory activity on cell proliferation, A431; type: cell-based; settings: Homo sapiens, A-431
Method: as §5, §6

[5] = Determination of solubility in water (PBS 20 mM, pH 6.8); type: physicochemical; settings: PBS buffer, aqueous buffer, thermodynamic from solid
Method: The suspension was filtered through a 0.22 μm PVDF filter, and then diluted to an appropriate concentration with methanol (v=50%) and PBS (v=50%), and the absorbance was measured by a UV spectrophotometer. About 3 mg of compound was accurately weighed, and methanol was added for preparing a stock solution of 1 mg/mL. The above stock solution was taken and prepared into a solution at concentrations of 0.05, 0.04, 0.03, 0.02 and 0.01 mg/mL, respectively, PBS solution (v=50%) was added and the absorbance value was measured. Concentration c (mg/mL) as horizontal ordinate vs absorbance A as longitudinal coordinate was plotted, and a line was fitted for obtaining a standard curve (correlation coefficient greater than 0.998). The solubility of a compound in water was calculated from the standard curve.

[6] = Compound 53 before and after resolution, read-out: Inhibitory IC50 means (nM) ± SD value on tyrosine kinase activity EGFR
[7] = Compound 53 before and after resolution, read-out: Inhibitory IC50 means (nM) ± SD value on tyrosine kinase activity EGFR/T790M/L858R
[8] = Compound 53 before and after resolution, read-out: Inhibitory IC50 means (μM) ± SD value on tumor cell growth activity NCI-H1975
[9] = Compound 53 before and after resolution, read-out: Inhibitory IC50 means (μM) ± SD value on tumor cell growth activity A431
[10] = wild type EGFR, read-out: Inhibitory activity of EGFR on kinase (IC50, nM) WT
[11] = EGFR T790M/L858R, read-out: Inhibitory activity of EGFR on kinase (IC50, nM) T790M/L858R
[12] = H1975, 72 hours, read-out: Inhibitory activity on proliferation of cells (IC50, μM) H1975
[13] = A431, 72 hours, read-out: Inhibitory activity on proliferation of cells (IC50, μM) A431
[14] = pH 6.8, 20 mM PBS, read-out: Solubility (pH 6.8, g/mL)
[15] = wild type EGFR, read-out: Inhibitory activity of EGFR on kinase (IC50) WT
[16] = EGFR T790M/L858R, read-out: Inhibitory activity of EGFR on kinase (IC50) T790M/L858R

T1 sequence (P00533 25-1210): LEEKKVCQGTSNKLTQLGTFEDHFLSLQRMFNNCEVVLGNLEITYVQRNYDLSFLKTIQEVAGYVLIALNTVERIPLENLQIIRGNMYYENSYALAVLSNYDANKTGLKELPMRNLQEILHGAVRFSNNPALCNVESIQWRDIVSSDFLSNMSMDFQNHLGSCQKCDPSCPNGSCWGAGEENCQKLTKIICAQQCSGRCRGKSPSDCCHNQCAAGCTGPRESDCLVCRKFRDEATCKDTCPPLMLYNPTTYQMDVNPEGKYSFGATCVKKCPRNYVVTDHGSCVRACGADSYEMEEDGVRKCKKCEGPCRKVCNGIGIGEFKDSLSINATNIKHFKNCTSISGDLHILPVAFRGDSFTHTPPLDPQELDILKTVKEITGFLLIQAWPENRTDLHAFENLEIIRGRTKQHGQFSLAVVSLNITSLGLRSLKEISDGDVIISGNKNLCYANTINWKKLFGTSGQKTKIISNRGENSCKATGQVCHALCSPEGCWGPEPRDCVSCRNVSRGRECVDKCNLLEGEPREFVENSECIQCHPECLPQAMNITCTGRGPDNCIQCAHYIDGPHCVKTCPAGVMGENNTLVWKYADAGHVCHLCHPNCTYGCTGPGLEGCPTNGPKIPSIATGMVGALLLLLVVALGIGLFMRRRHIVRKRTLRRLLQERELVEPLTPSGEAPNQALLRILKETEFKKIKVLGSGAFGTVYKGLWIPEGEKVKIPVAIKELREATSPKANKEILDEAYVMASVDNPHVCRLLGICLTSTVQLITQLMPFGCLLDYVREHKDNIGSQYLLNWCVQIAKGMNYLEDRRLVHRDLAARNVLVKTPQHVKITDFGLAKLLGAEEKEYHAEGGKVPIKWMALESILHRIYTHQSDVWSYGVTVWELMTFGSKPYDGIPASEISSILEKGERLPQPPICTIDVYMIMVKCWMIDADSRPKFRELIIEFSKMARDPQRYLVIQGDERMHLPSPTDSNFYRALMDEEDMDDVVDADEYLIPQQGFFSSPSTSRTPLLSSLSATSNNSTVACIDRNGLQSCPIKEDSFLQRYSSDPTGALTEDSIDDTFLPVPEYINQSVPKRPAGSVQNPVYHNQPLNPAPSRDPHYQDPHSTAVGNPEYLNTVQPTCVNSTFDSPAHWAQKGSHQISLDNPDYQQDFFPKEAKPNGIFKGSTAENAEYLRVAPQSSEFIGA

IC50 [1, 10] [nM]	IC50 [2, 11] [nM]	IC50 [3, 12] [µM]	IC50 [4, 13] [µM]	solubility [5, 14] [µg/mL]	Compound	also measured
					C=CC(=O)N1CCC[C@@H](Cn2c(=O)c(-c3ccccc3)nc3cnc(Nc4ccc(N5CCN(C)CC5)cc4OC)nc32)C1 [53-1 (R)]	IC50 [1, 6]: 273 ± 38 nM; IC50 [2, 7]: 295 ± 85 nM; IC50 [3, 8]: > 10 µM; IC50 [4, 9]: 5.31 ± 1.04 µM
					C=CC(=O)N1CCC[C@H](Cn2c(=O)c(-c3ccccc3)nc3cnc(Nc4ccc(N5CCN(C)CC5)cc4OC)nc32)C1 [53-2 (S)]	IC50 [1, 6]: 8 ± 0.8 nM; IC50 [2, 7]: 15.2 ± 2.3 nM; IC50 [3, 8]: 0.062 ± 0.012 µM; IC50 [4, 9]: > 10 µM
251	129	12.2	13.8	1280 (≈ 2610 µM)	C=CC(=O)N1CC[C@H](n2c(=O)cnc3cnc(Nc4ccc(N5CCN(C)CC5)cc4OC)nc32)C1 [Compound 1]	
		18.2	89.6	11100 (≈ 22600 µM)	C=CC(=O)N1CC[C@@H](n2c(=O)cnc3cnc(Nc4ccc(N5CCN(C)CC5)cc4OC)nc32)C1 [Compound 2]	IC50 [1, 15]: > 10000 nM; IC50 [2, 16]: > 10000 nM
		33.7	60.6	> 11400	C=CC(=O)N1CCC[C@H](n2c(=O)cnc3cnc(Nc4ccc(N5CCN(C)CC5)cc4OC)nc32)C1 [Compound 3]	IC50 [1, 15]: > 10000 nM; IC50 [2, 16]: > 10000 nM
4.5		0.009	0.94		C=CC(=O)Nc1cccc(-n2c(=O)cnc3cnc(Nc4ccc(N5CCN(C)CC5)c(OC)c4)nc32)c1 [Compound 4]	IC50 ([2]; read-out: IC50 of inhibitory activity on EGFR-T790M/L858R kinase): 3.9 nM; IC50 ([3]; H1975 (EGFR-T790M/L858R), read-out: IC50 of inhibiting proliferation of H1975 cells): 0.009 µM; solubility ([5]; 20 mM phosphate buffer, pH 6.8, read-out: solubility in water): 1370 µg/mL (≈ 2670 µM)
2.4	0.6	0.006	0.82	122 (≈ 246 µM)	C=CC(=O)Nc1cccc(-n2c(=O)cnc3cnc(Nc4ccc(N5CCN(C)CC5)c(C)c4)nc32)c1 [Compound 5]	
106	14.8	0.46	1.69	51.8 (≈ 98.4 µM)	C=CC(=O)Nc1cccc(-n2c(=O)cnc3cnc(Nc4cc(C)c(N5CCN(C)CC5)cc4OC)nc32)c1 [Compound 6, N-(3-(2-4-((2-methoxy-5-methyl-4-(4-methyl-1-piperazinyl)phenyl)amino)-7-oxo-8(7H)-pteridinyl)phenyl)acrylamide]	
45.2	9.5	0.197	20.5	< 25	C=CC(=O)Nc1cccc(-n2c(=O)cnc3cnc(Nc4ccc(N5CCN(C(C)=O)CC5)cc4OC)nc32)c1 [Compound 7, N-(3-(2-((4-(4-acetyl-1-piperazinyl)-2-methoxyphenyl)amino)-7-oxo-8(7H)-pteridinyl)phenyl)acrylamide]	
5.7	2.1	0.09	0.97	280 (≈ 549 µM)	C=CC(=O)Nc1cccc(-n2c(=O)cnc3cnc(Nc4ccc(CCN5CCN(C)CC5)cc4)nc32)c1 [Compound 8, N-(3-(2-((4-(2-(4-methyl-1-piperazinyl)ethyl)phenyl)amino)-7-oxo-8(7H)-pteridinyl)phenyl)acrylamide]	
93.7	191	2.6	7.53	399 (≈ 716 µM)	C=CC(=O)Nc1cccc(-n2c(=O)cnc3cnc(Nc4ccc(N5CCN(C)CC5)cc4OCCOC)nc32)c1 [Compound 10, N-(3-(2-((2-(methoxyethoxy)-4-(4-methyl-1-piperazinyl)phenyl)amino)-7-oxo-8(7H)-pteridinyl)phenyl)acrylamide]	
2.2	7.3	0.2	8.09	48.6 (≈ 89.6 µM)	C=CC(=O)Nc1cccc(-n2c(=O)cnc3cnc(Nc4ccc(N5CCN(CCO)CC5)cc4OC)nc32)c1 [Compound 11, N-(3-(2-((4-(4-(2-hydroxyethyl)-1-piperazinyl)-2-methoxyphenyl)amino)-7-oxo-8 (7H)-pteridinyl)phenyl)acrylamide]	
3.5	6.2	0.006	2.52	369 (≈ 683 µM)	C=CC(=O)Nc1cccc(-n2c(=O)cnc3cnc(Nc4ccc(N5CCC(N(C)C)CC5)cc4OC)nc32)c1 [Compound 12]	
4.2	5.7	0.046	1.48	8.9 (≈ 17 µM)	C=CC(=O)Nc1cccc(-n2c(=O)c(C(C)C)nc3cnc(Nc4ccc(N5CCN(C)CC5)cc4)nc32)c1 [Compound 13, N-(3-(6-isopropyl-2-((4-(4-methyl-1-piperazinyl)phenyl)amino)-7-oxo-8(7H)-pteridinyl)phenyl)acrylamide]	
2300	2250			514 (≈ 1020 µM)	C=CC(=O)N1CCC(n2c(=O)cnc3cnc(Nc4ccc(N5CCN(C)CC5)cc4OC)nc32)CC1 [Compound 15, 8-(1-acryloyl-4-piperidinyl)-2-((2-methoxy-4-(4-methyl-1-piperazinyl)phenyl)amino)-7(8H)-pteridinone]	
4700	> 10000	> 10	> 10	956 (≈ 1840 µM)	C=CC(=O)N1CCC[C@@H](Cn2c(=O)cnc3cnc(Nc4ccc(N5CCN(C)CC5)cc4OC)nc32)C1 [Compound 16, (R)-8-((1-acryloyl-3-piperidinyl)methyl)-2-((2-methoxy-4-(4-methyl-1-piperazinyl)phenyl)amino)-7(8H)-pteridinone]	
2190	191	1.42	> 10	957 (≈ 1850 µM)	C=CC(=O)N1CCC[C@H](Cn2c(=O)cnc3cnc(Nc4ccc(N5CCN(C)CC5)cc4OC)nc32)C1 [Compound 17]	
				< 10	C=CC(=O)N1CCCC(n2c(=O)c(-c3ccccc3)nc3cnc(Nc4ccc(N5CCN(C)CC5)cc4OC)nc32)C1 (centres unmarked) [Compound 58, 8-(1-acryloyl-3-piperidinyl)-2-((2-methoxy-4-(4-methyl-1-piperazinyl)phenyl)amino)-6-phenyl-7(8H)pteridinone]	
